Here are results for 4 molecules from EP4303307A1, “METHOD FOR PRODUCING FLAVOURS USING O-METHYLTRANSFERASE FROM PLEUROTUS” (Justus-Liebig-Universität Gießen Rechtsabteilung, priority 2022, dated 2024).

Assay type in all cases: biochemical, P. sapidus
In test [1] the test system is O-Methyltransferase. The test is described as follows: Enzymatic conversion of the thiol substrate, product detected by GC-MS. The note with it: compared with blanks (chemical and chemical-biological). The source says: Durch die Umsetzung von 2-Methyl-3-furanthiol als Substrat mit O-Methyltransferase wird beispielhaft das breite, Substanzklassen-übergreifende, Substratspektrum der O-Methyltransferase gezeigt. Neben den unter 6. aufgeführten Substraten werden beispielhaft auch Umsetzungen unter Verwendung von 2-Methyl-3-furanthiol durchgeführt.

The test system of test [2] is O-Methyltransferase. In words: Enzymatic methylation of further substrates, conversion rates (Table 2). The note with it: 34 °C, 500 µM educt, phosphate buffer pH 7,4 (100 mM), 24 h, without shaking; for Produktkonzentration: concentration of the methylated product. On the procedure:
In Tabelle 2 sind die Umsetzungsraten weiterer Ausführungsbeispiele zusammengestellt, wobei die Reaktionsbedingungen für die Umsetzungen in Tabelle 2 beispielhaft wie folgt ausgewählt wurden: Temperatur 34 °C, jeweils 500 µM Edukt- und Produktkonzentration, Phosphatpuffer pH = 7,4 (100 mM), Reaktionsdauer: 24 h, Durchführung jeweils ohne Schütteln). Tabelle 2: Weitere beispielhaft ausgewählte Umsatzraten

For test [3], the system named is O-Methyltransferase. In words: Determination of enzyme kinetic parameters (Michaelis-Menten, non-linear regression). The source says:
Bekanntermaßen werden Biokatalysatoren, bzw. Enzyme wie O-Methyltransferasen, auch durch die Bestimmung ihrer jeweiligen enzymkinetischen Parameter unter definierten Bedingungen charakterisiert. Daher werden anhand eines Beispiels auch die enzymkinetischen Parameter der O-Methyltransferase bestimmt. Die Versuchsergebnisse sind in Tabelle 1 zusammengestellt. Mit dem Substrat, gegenüber dem die beispielhaft untersuchte O-Methyltransferase die höchste Aktivität aufweist, sowie dem Cofaktor werden die enzymkinetischen Parameter (Km, vmax) graphisch nach nichtlinearer Regression (Michaelis-Menten, Softwarepaket OriginPro 2020) ermittelt (vgl. Fig. 8, Fig. 8A, Fig. 8B). Zudem wird beispielhaft die katalytische Konstante (kcat) sowie die katalytische Effizienz (kcat/Km) berechnet. Die resultierenden Werte sind zusammengefasst in Tabelle 1 aufgeführt. Tabelle 1: Enzymkinetische Parameter der aus P. sapidus abgeleiteten O-Methyltransferase unter Verwendung von p-Hydroxybenzaldehyd als Substrat
Fig. 1: Korrelation der Anzahl der Transkriptionskopien und der Peakflächen (normiert auf internen Standard) von p-Anisaldehyd der DK5 und MK57 Kulturen. Fig. 2: SDS-PAGE-Gel der O-Methyltransferase (L: Lysat von E. coli, P: Protein nach Reinigung mittels FPLC) und Western Blot Membran (Anti-His-Tag Antikörper). Fig. 3: Beispielhafte Umsetzung von p-Hydroxybenzaldehyd (500 µM) und SAM (500 µM) mittels O-Methyltransferase (0,16 µM) in Davies Puffer über 2 h (jeweils im Triplikat) zur Ermittlung des pH-Optimums; bei den für die Ordinatenachse gewählten willkürlichen Einheiten handelt es sich um die gerätetypische Quantifizierung der Peakfläche von p-Anisaldehyd im Chromatogramm der jeweiligen Probe aus der betreffenden Reaktionslösung nach Abschluss der Umsetzung. Fig. 4: Beispielhafte Umsetzung von p-Hydroxybenzaldehyd (500 µM) und SAM (500 µM) mittels O-Methyltransferase (0,16 µM) in 0,1 M Phosphatpuffer über 2 h bei 24 °C (jeweils im Triplikat) zur weiteren Ermittlung des pHOptimums. […]

As to `Cc1occc1S` [2-Methyl-3-furanthiol], the “Bildung des methylierten Produktes” value in test [1] is reported as “gesteigerte Bildung des methylierten Produktes”.

In the case of `O=c1ccc2cc(O)ccc2o1` [6-Hydroxycoumarin], in test [2], the Umsetzungsrate is reported as 2% and the Produktkonzentration is reported as 11,5 ± 0,3 µM.

As for `COc1cc(C=O)ccc1O` [Vanillin], in test [2], the Umsetzungsrate was 5% and the Produktkonzentration is given as 23,8 ± 0,9 µM.

Consider `O=Cc1ccc(O)cc1` [p-Hydroxybenzaldehyd], for which the “katalytische Konstante (kcat)” value in test [3] (calculated, p-Hydroxybenzaldehyd as substrate) is 2,5 s^-1. The “mittlere maximale Geschwindigkeit (vmax)” value in test [3] (substrate with SAM (500 µM), enzyme 0,16 µM, 0,1 M phosphate buffer pH 7,4, 34 °C, 20 min) is on record as 43,7 mU mg^-1. For the same molecule, the Km in test [3] (substrate with SAM (500 µM), enzyme 0,16 µM, 0,1 M phosphate buffer pH 7,4, 34 °C, 20 min, read-out: mittlere Michaelis-Menten-Konstante (Km)) stood at 79 µM.

One may read the Km as the concentration of substrate that gives half-maximal velocity.
